{"source": "patent US6900019B1", "about": "“In-situ cell extraction and assay method” (Amersham Biosciences UK Limited, priority 1997, dated 2005)", "key": {"[1]": {"test_system": "Chinese hamster ovary (CHO) cells", "assay": "\"Total\" cellular cAMP from forskolin-stimulated CHO cells", "format": "cell-based", "conditions": "100 μM forskolin, 20 minutes", "description": "Chinese hamster ovary (CHO) cells were cultured in HAM's media containing 10% (v/v) foetal calf serum (FCS). For cAMP assays, cells were seeded into clear-bottomed 96-well tissue-culture plates with opaque walls (tissue-culture grade; see materials) in HAM's media, (see experiment 5) at 40 μl/well (between 10^4 and 10^6 cells/well). Cells were cultured overnight at 37° C. in a 95% air/5% CO2 atmosphere. The next day, sequestration and lysis buffers (2.5% alpha-cyclodextrin, 1% and 10% DTAB in assay buffer) were prepared. Antisera (at 1/11000 dilution), tracer (10000-20000 cpm) and SPA beads (20 mg/ml) were reconstituted with assay buffer containing 2.5% (w/v) alpha-cyclodextrin. […]\nDTAB (100 μl, 1% w/v in assay buffer) was added to the non-specific binding wells. […] Following incubation, the plate was transferred directly to a TopCount™ scintillation counter and radioactivity detected. Non-specific binding was determined in the absence of specific rabbit antisera. Cyclic AMP levels were determined using log/linear analysis with reference to the standard curve. […]\nChinese hamster ovary cells were seeded at a density of 100,000 cells per well and cultured overnight to confluence in Viewplates as described under the methods section. […] The cell culture supernatant was not removed before the cell lysis step. cAMP levels were measured with the SPA radioimmunoassay procedure."}, "ECV304 cells": {"test_system": "ECV304 cells", "assay": "Intracellular IL-6 from IL-1β stimulated ECV304 cells (ELISA)", "format": "cell-based, human", "conditions": "500 pg/ml IL-1β overnight", "description": "ECV304 cells were cultured in M-199 media containing 10% (v/v) foetal calf sera (FCS). For IL-6 assays, cells were seeded into standard 96-well tissue culture plates in 100 μl volumes (between 10^5-10^6 cells/ml). Cells were cultured overnight at 37° C. in a 95% air/5% CO2 atmosphere. On day 2 working solutions of IL-1β (2-500 pg/ml; final concentration) were prepared in M-199 media in order to stimulate the production of IL-6. A culture media blank was prepared with cultured cells grown in the absence of IL-1β. Cells were again cultured overnight at 37° C. in a 95% air/5% CO2 atmosphere. On day 3, a 1% (wt) solution of DTAB was prepared in standard diluent. […]\nWorking standards (10.24400 pg/ml IL-6) were prepared in polypropylene tubes using assay buffer containing 1% (w/v) DTAB. […] Non-specific binding was measured in the absence of IL-6 (zero IL-6 standard). […] The optical density was determined with a microtitre plate spectrophotometer set at 450 nm. Interleukin-6 levels were determined using log/linear analysis with reference to a standard curve. […]\nECV304 cells were seeded at a density of 100,000 cells per well and cultured overnight to confluence in standard 96-well tissue culture plates as described under the methods section. […] Levels of IL-6 were measured in the samples with ELISA (the biotinylated antibody was prepared in the presence of 3% (w/v) alpha-cyclodextrin)."}, "[2]": {"test_system": "rabbit anti-cAMP sera (antigen:antibody binding)", "assay": "Scintillation proximity radioimmunoassay for cAMP: standard curves with lysis reagents and sequestrants", "conditions": "no sequestrant", "description": "All assays were carried out in microtitre plates compatible with a microtitre plate beta scintillation counter. Standards (50 μl; 0.2-12.8 pmol/well), antisera (50 μl; at 1:11000 dilution), tracer (50 ul; 10000-20000 cpm) are added to anti-rabbit coated SPA beads (50 μl; 20 mg/ml). Non-specific binding was determined in the absence of specific rabbit antisera. SPA anti-rabbit reagent is placed onto a magnetic stirrer to ensure a homogeneous suspension before pipetting. All wells contained a total volume of 200 μl. The plates were sealed and incubated at room temperature (15-30° C.) for 15-20 hours. The amount of [^125I]cAMP bound to the SPA fluomicrospheres was determined by counting in a microtitre plate beta scintillation counter for 2 minutes.\nExperiments were set up with:— • a) Working standards (4-256 pmol/ml; 0.2-12.8 pmol/well) were prepared in assay buffer (0.05M sodium acetate buffer containing 0.01% sodium azide) only (control) or assay buffer containing lysis reagent (e.g. DTAB, CPC or SDS; see experiment 1) at various concentrations. • b) Rabbit anti-cAMP sera prepared in assay buffer only (control) or assay buffer containing sequestrating agent at various concentrations depending on the experiment. • c) Radioactive tracer: adenosine 3′ 5′-cyclic phosphoric acid 2′-O-succinyl-3-[^125I] iodotyrosine methyl ester prepared in assay buffer only (control) or assay buffer containing sequestrating agent at various concentrations depending on the experiment. • d) Donkey anti-rabbit IgG coupled to scintillation proximity fluomicrospheres prepared in assay buffer only (control) or assay buffer containing sequestrating agent at various concentrations depending on the experiment. Experiment 1: Inhibition of Antigen and Antibody Binding by Several Lysis Reagents Method\nIn these experiments, standard curves were prepared for cAMP using the SPA immunoassay technique, described above, where working standards of cAMP were prepared in several lysis reagents at 1% (w/v) or 2% (w/v) final concentration. The detergents investigated included dodecyl trimethyl ammonium bromide (DTAB; Sigma Chemical Co. D8638), benzethonium chloride (BZC; Aldrich; B470-8), cetyl pyridinium chloride (CPC; Sigma Chemical Co; C9002), sodium dodecyl sulphate (SDS, Sigma chemical Co; L4509) and N-dodecyl-N,N-dimethyl-3-ammonio-1-propanesulphonate (DDAPS; Sigma Chemical Co.; D4516).\nIn these experiments, standard curves for cAMP were prepared using the SPA immunoassay technique described above, where working standards of cAMP were prepared in 1% (w/v), 1.5% (w/v) or 2% (w/v) lysis reagents (DTAB, SDS or CPC). The control consisted of no lysis reagent or cyclodextrin added. The effect including 2.5% (w/v) alpha-cyclodextrin (alpha-CD) (Sigma Chemical Co.; C4642) on antigen:antibody binding was investigated. Here, tracer, antisera and SPA beads were prepared in assay buffer containing 2.5% (w/v) alpha-CD. A second control tested the effect of 2.5% (w/v) alpha-CD on the standard curve without addition of lysis reagent.\nIn this experiment, standard curves for cAMP were prepared using the SPA radioimmunoassay where working standards of cAMP were prepared in 1% (w/v) DTAB. The effect of including 1% (w/v), 2% (w/v), 2.5% (w/v) and 5% (w/v) alpha-cyclodextrin on antigen:antibody binding was investigated. Here, tracer, antisera and SPA beads were prepared in assay buffer containing alpha-CD at the above concentrations. The control consisted of no lysis or cyclodextrin added to the assay.\nIn this experiment, standard curves for cAMP were prepared using the SPA immunoassay technique where working standards were prepared 1% (wt) lysis reagent (DTAB). The effect of including 2.5% (w/v) alpha-cyclodextrin (CD) 2.5% (w/v) beta-cyclodextrin (beta-CD) (Sigma is Chemical Co.; C4767) and 2.5% (w/v) gamma-cyclodextrin (gamma-CD) (Sigma Chemical Co.; 4892) on antigen:antibody binding was investigated. […]"}}, "data": [{"compound": "C=C[C@@]1(C)CC(=O)[C@]2(O)[C@@]3(C)[C@@H](O)CCC(C)(C)[C@@H]3[C@H](O)[C@H](OC(C)=O)[C@@]2(C)O1", "note": "[forskolin, Forskolin]", "values": [{"measurement": "Total cellular cAMP levels", "setting": "[1]", "result": "over 170 pmol/10^6 cells"}]}, {"compound": "IL-1β: Interleukin-1β (Amersham, ARM 17005), used to stimulate the production of IL-6", "values": [{"measurement": "Intracellular IL-6 levels", "setting": "ECV304 cells", "result": "over 400 pg/10^6 cells"}]}, {"compound": "CC(C)(C)CC(C)(C)c1ccc(OCCOCC[N+](C)(C)Cc2ccccc2)cc1", "note": "[BZC, benzethonium chloride]", "values": [{"measurement": "[125I]cAMP bound to SPA beads, counts per minute", "setting": "[2]; 1% lysis reagent, 0.2 pmol cAMP/well", "result": 644, "unit": "cpm"}, {"measurement": "[125I]cAMP bound to SPA beads, counts per minute", "setting": "[2]; 1% lysis reagent, 0.4 pmol cAMP/well", "result": 501, "unit": "cpm"}, {"measurement": "[125I]cAMP bound to SPA beads, counts per minute", "setting": "[2]; 1% lysis reagent, 0.8 pmol cAMP/well", "result": 473, "unit": "cpm"}, {"measurement": "[125I]cAMP bound to SPA beads, counts per minute", "setting": "[2]; 1% lysis reagent, 1.6 pmol cAMP/well", "result": 426, "unit": "cpm"}, {"measurement": "[125I]cAMP bound to SPA beads, counts per minute", "setting": "[2]; 1% lysis reagent, 3.2 pmol cAMP/well", "result": 261, "unit": "cpm"}, {"measurement": "[125I]cAMP bound to SPA beads, counts per minute", "setting": "[2]; 1% lysis reagent, 6.4 pmol cAMP/well", "result": 16, "unit": "cpm"}, {"measurement": "[125I]cAMP bound to SPA beads, counts per minute", "setting": "[2]; 1% lysis reagent, 12.8 pmol cAMP/well", "result": 6, "unit": "cpm"}, {"measurement": "[125I]cAMP bound to SPA beads, counts per minute", "setting": "[2]; 1% lysis reagent, NSB (no specific antisera)", "result": 111, "unit": "cpm"}, {"measurement": "[125I]cAMP bound to SPA beads, counts per minute", "setting": "[2]; 1% lysis reagent, Zero standard", "result": 951, "unit": "cpm"}, {"measurement": "[125I]cAMP bound to SPA beads, counts per minute", "setting": "[2]; 2% lysis reagent, 0.2 pmol cAMP/well", "result": 308, "unit": "cpm"}, {"measurement": "[125I]cAMP bound to SPA beads, counts per minute", "setting": "[2]; 2% lysis reagent, 0.4 pmol cAMP/well", "result": 338, "unit": "cpm"}, {"measurement": "[125I]cAMP bound to SPA beads, counts per minute", "setting": "[2]; 2% lysis reagent, 0.8 pmol cAMP/well", "result": 222, "unit": "cpm"}, {"measurement": "[125I]cAMP bound to SPA beads, counts per minute", "setting": "[2]; 2% lysis reagent, 1.6 pmol cAMP/well", "result": 156, "unit": "cpm"}, {"measurement": "[125I]cAMP bound to SPA beads, counts per minute", "setting": "[2]; 2% lysis reagent, 3.2 pmol cAMP/well", "result": 143, "unit": "cpm"}, {"measurement": "[125I]cAMP bound to SPA beads, counts per minute", "setting": "[2]; 2% lysis reagent, 6.4 pmol cAMP/well", "result": 96, "unit": "cpm"}, {"measurement": "[125I]cAMP bound to SPA beads, counts per minute", "setting": "[2]; 2% lysis reagent, 12.8 pmol cAMP/well", "result": 70, "unit": "cpm"}, {"measurement": "[125I]cAMP bound to SPA beads, counts per minute", "setting": "[2]; 2% lysis reagent, NSB (no specific antisera)", "result": 117, "unit": "cpm"}, {"measurement": "[125I]cAMP bound to SPA beads, counts per minute", "setting": "[2]; 2% lysis reagent, Zero standard", "result": 486, "unit": "cpm"}]}]}
